IC50 data for 35 compounds are collected here from PubChem BioAssay AID651650 (Sanford-Burnham Center for Chemical Genomics, 2012).

Calls of active or inactive are those of the source.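 How the source made its calls: active means mean IC50 below 20 µM in each of the two panels, so potent in both; inactive means the rest.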 Bounds are passed on as bounds.

The target of the test is Neuropilin-1 (Homo sapiens) (UniProt O14786). The test is described as follows: blockers of CendR peptide binding to NRP-1 – biochemical, FP and AlphaScreen panel, dose response (AID 651650). The following applies: NRP-1 b1b2 / RPARPAR peptide binding, FP or AlphaScreen.
Where [1] appears, read: AlphaScreen, run 1, individual panel run IC50.
[2] abbreviates: FP, run 1, individual panel run IC50.
[3] abbreviates: FP, run 2, individual panel run IC50.

Neuropilin-1 (Homo sapiens), sequence (O14786 whole entry, looked up): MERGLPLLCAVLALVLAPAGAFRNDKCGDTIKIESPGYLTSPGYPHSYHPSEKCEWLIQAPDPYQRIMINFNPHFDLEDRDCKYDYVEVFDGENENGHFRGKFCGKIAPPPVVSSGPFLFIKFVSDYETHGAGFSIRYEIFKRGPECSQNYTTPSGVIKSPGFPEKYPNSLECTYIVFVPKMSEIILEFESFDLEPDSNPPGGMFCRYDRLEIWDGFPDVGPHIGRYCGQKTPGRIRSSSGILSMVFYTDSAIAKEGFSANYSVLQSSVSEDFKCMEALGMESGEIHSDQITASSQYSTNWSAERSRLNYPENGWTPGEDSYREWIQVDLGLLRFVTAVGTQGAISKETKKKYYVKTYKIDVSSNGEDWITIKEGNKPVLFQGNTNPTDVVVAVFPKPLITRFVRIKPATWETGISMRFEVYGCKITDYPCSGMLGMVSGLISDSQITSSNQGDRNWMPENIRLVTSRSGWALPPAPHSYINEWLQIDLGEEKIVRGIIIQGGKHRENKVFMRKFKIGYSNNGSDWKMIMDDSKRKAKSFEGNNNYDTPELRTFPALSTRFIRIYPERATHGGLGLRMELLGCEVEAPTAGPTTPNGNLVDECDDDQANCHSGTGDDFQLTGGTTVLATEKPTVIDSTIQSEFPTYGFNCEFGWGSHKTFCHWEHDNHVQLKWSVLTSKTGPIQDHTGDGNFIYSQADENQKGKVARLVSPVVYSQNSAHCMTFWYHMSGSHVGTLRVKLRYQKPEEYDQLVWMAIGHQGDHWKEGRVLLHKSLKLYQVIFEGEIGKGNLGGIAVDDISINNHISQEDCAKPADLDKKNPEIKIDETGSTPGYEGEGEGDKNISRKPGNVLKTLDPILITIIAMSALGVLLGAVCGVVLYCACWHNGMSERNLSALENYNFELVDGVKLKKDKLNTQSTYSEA

Consider `O=C1CCCN1CCCNc1nc(NCc2cccs2)nc2ccsc12`, for which, under “AlphaScreen, mean of runs”, the IC50 (as a rule, the point on the concentration scale where inhibition reaches its midpoint) is “inactive”. Further, the IC50 by setting is: under setting [1], 28 µM; (FP, mean of runs) > 95 µM (inactive); under setting [2], more than 95 µM; under setting [3], more than 95 µM.
On to `O=C(CSC1CN(C(c2ccccc2)c2ccccc2)C1)N/N=C/c1ccccc1`, for which the IC50 runs as follows: (AlphaScreen, mean of runs) 5.56 µM; under setting [1], 5.56 µM; (FP, mean of runs) > 95 µM (inactive); under setting [2], more than 95 µM; under setting [3], more than 95 µM.
In the case of `O=C(Nc1cccc2c1CCCC2)c1cc(C2CCCCN2C(=O)CCCc2ccccc2)on1` (stereo not given), the IC50 is > 100 µM (inactive) (AlphaScreen, mean of runs); more than 100 µM under setting [1]; > 95 µM (inactive) (FP, mean of runs); more than 95 µM under setting [2]; more than 95 µM under setting [3].
As for `O=C(O)c1ccccc1SCC(=O)N1CCCCC1`, the IC50 by setting is: (AlphaScreen, mean of runs) > 100 µM (inactive); under setting [1], more than 100 µM; (FP, mean of runs) > 95 µM (inactive); under setting [2], more than 95 µM; under setting [3], more than 95 µM.
Regarding `CCOC(=O)C1=C(O)C(=O)N(c2ccccc2)C1c1cccc([N+](=O)[O-])c1` (stereo not given), the IC50 (AlphaScreen, mean of runs) was > 100 µM (inactive); the IC50 under setting [1] was more than 100 µM; the IC50 (FP, mean of runs) was > 95 µM (inactive); the IC50 under setting [2] was more than 95 µM; the IC50 under setting [3] was more than 95 µM.
As to `CC(C)Cc1ccc(C(C)C(=O)Nc2ccc(O)cc2)cc1` (stereo not given), the IC50 is, setting by setting: (AlphaScreen, mean of runs) > 100 µM (inactive); under setting [1], more than 100 µM; (FP, mean of runs) > 95 µM (inactive); under setting [2], more than 95 µM; under setting [3], more than 95 µM.
Regarding `O=C1CCC/C=C\C[C@@H](CC(=O)N(CCO)Cc2ccccc2)C(=O)N2CCC[C@H]2CO1`, the IC50 is, setting by setting: (AlphaScreen, mean of runs) > 100 µM (inactive); under setting [1], more than 100 µM; (FP, mean of runs) > 95 µM (inactive); under setting [2], more than 95 µM; under setting [3], more than 95 µM.
As for `Cc1ccc(C(=O)NCCCc2ccccc2)c(C)c1`, the IC50 was > 100 µM (inactive) (AlphaScreen, mean of runs); more than 100 µM under setting [1]; > 95 µM (inactive) (FP, mean of runs); more than 95 µM under setting [2]; more than 95 µM under setting [3].
On to `CC(OC(=O)c1ccco1)C(=O)Nc1nc(-c2ccccc2)cs1` (stereo not given), for which the IC50 runs as follows: (AlphaScreen, mean of runs) > 100 µM (inactive); under setting [1], more than 100 µM; (FP, mean of runs) > 95 µM (inactive); under setting [2], more than 95 µM; under setting [3], more than 95 µM.
For the compound `O=S(=O)(c1ccccc1)c1nc(-c2ccc(F)cc2)oc1N1CCOCC1`, the IC50 is > 100 µM (inactive) (AlphaScreen, mean of runs); more than 100 µM under setting [1]; > 95 µM (inactive) (FP, mean of runs); more than 95 µM under setting [2]; more than 95 µM under setting [3].
In the case of `O=C(NCCN1CCN(C(=O)c2cccc(OC(F)F)c2)CC1)c1cccc(OC(F)F)c1`, the IC50 (AlphaScreen, mean of runs) is > 100 µM (inactive); the IC50 under setting [1] is more than 100 µM; the IC50 (FP, mean of runs) was > 95 µM (inactive); the IC50 under setting [2] is more than 95 µM; the half-maximal inhibitory concentration (IC50) under setting [3] was more than 95 µM.
Take `CN(C)/C=C/c1c([N+](=O)[O-])c2ccc(O)cc2n1-c1ccccc1`: the IC50 was > 100 µM (inactive) (AlphaScreen, mean of runs); more than 100 µM under setting [1]; > 95 µM (inactive) (FP, mean of runs); more than 95 µM under setting [2]; more than 95 µM under setting [3].
With `Fc1cc(Cl)ccc1Nc1nc(NCc2ccccc2)nc2ccsc12`, the IC50 (AlphaScreen, mean of runs) was > 100 µM (inactive); the IC50 under setting [1] was more than 100 µM; the IC50 (FP, mean of runs) is > 95 µM (inactive); the IC50 under setting [2] is more than 95 µM; the IC50 under setting [3] was more than 95 µM.
On to `Cc1cc(C)n(-c2nnc3n2N=C(c2c[nH]c4ccccc24)CS3)n1`, for which the IC50 is, setting by setting: (AlphaScreen, mean of runs) > 100 µM (inactive); under setting [1], more than 100 µM; (FP, mean of runs) > 95 µM (inactive); under setting [2], more than 95 µM; under setting [3], more than 95 µM.
`CCC(=O)Nc1nc2nc(-c3ccccc3)cc(-c3ccccc3)n2n1`: the IC50 is > 100 µM (inactive) (AlphaScreen, mean of runs); more than 100 µM under setting [1]; > 95 µM (inactive) (FP, mean of runs); more than 95 µM under setting [2]; more than 95 µM under setting [3].
Consider `COC(=O)n1c(=O)oc2ccccc21`, for which the IC50 reads like this: (AlphaScreen, mean of runs) > 100 µM (inactive); under setting [1], more than 100 µM; (FP, mean of runs) > 95 µM (inactive); under setting [2], more than 95 µM; under setting [3], more than 95 µM.
As for `O=C(NNC(=O)c1csc(N2CCOCC2)n1)c1ccc(=O)[nH]c1`, the IC50 reads like this: (AlphaScreen, mean of runs) > 100 µM (inactive); under setting [1], more than 100 µM; (FP, mean of runs) > 95 µM (inactive); under setting [2], more than 95 µM; under setting [3], more than 95 µM.
`Cn1c(=NC(=O)COc2ccccc2)sc2ccccc21`: the IC50 (AlphaScreen, mean of runs) is > 100 µM (inactive); the IC50 under setting [1] is more than 100 µM; the IC50 (FP, mean of runs) was > 95 µM (inactive); the IC50 under setting [2] was more than 95 µM; the IC50 under setting [3] was more than 95 µM.
As to `CCCCOc1ccc(S(=O)(=O)N2CCN(C)CC2)cc1`, the IC50 entry (AlphaScreen, mean of runs) is “inactive”. Moreover, the IC50 is 76.4 µM under setting [1]; > 95 µM (inactive) (FP, mean of runs); more than 95 µM under setting [2]; more than 95 µM under setting [3].
For the compound `O=C(Cc1ccccc1Cl)N1CCOCC1`, the IC50 was > 100 µM (inactive) (AlphaScreen, mean of runs); more than 100 µM under setting [1]; > 95 µM (inactive) (FP, mean of runs); more than 95 µM under setting [2]; more than 95 µM under setting [3].
For the compound `N#CC(C#N)=Cc1cc2ccccc2nc1N1CCCCC1`, the IC50 runs as follows: (AlphaScreen, mean of runs) > 100 µM (inactive); under setting [1], more than 100 µM; (FP, mean of runs) > 95 µM (inactive); under setting [2], more than 95 µM; under setting [3], more than 95 µM.
For `COc1ccc2c(c1)N(C)/C(=C1/SC(=NCc3ccccc3)N(c3ccccc3)C1=O)S2`, the IC50 is > 100 µM (inactive) (AlphaScreen, mean of runs); more than 100 µM under setting [1]; > 95 µM (inactive) (FP, mean of runs); more than 95 µM under setting [2]; more than 95 µM under setting [3].
Take `COc1cc2c(cc1OC)C(Nc1ccc(S(N)(=O)=O)cc1)=NC(C)(C)C2`: where the note is “AlphaScreen, mean of runs”, the IC50 entry is “inactive”. For the same compound, the IC50 is 51.8 µM under setting [1]; > 95 µM (inactive) (FP, mean of runs); more than 95 µM under setting [2]; more than 95 µM under setting [3].
Regarding `CCNS(=O)(=O)c1ccc(CCC(=O)O)cc1`, the IC50 is > 100 µM (inactive) (AlphaScreen, mean of runs); more than 100 µM under setting [1]; > 95 µM (inactive) (FP, mean of runs); more than 95 µM under setting [2]; more than 95 µM under setting [3].
For `Cc1onc(-c2ccccc2)c1C(=O)Nc1c(C)n(C)n(-c2ccccc2)c1=O`, the IC50 by setting is: (AlphaScreen, mean of runs) > 100 µM (inactive); under setting [1], more than 100 µM; (FP, mean of runs) > 95 µM (inactive); under setting [2], more than 95 µM; under setting [3], more than 95 µM.
For `O=C(NCc1ccccc1)c1ccc(N2CCC3(CC2)CC(c2ccc(Cl)cc2)=NO3)c([N+](=O)[O-])c1`, the IC50 entry (AlphaScreen, mean of runs) is “inactive”. Also, the IC50 is 22 µM under setting [1]; > 95 µM (inactive) (FP, mean of runs); more than 95 µM under setting [2]; more than 95 µM under setting [3].
On to `Cc1ccc(NC(=O)c2ccc3c(c2)OCCO3)cc1S(=O)(=O)Nc1cccc(Cl)c1`, for which the IC50 (AlphaScreen, mean of runs) was > 100 µM (inactive); the IC50 under setting [1] was more than 100 µM; the IC50 (FP, mean of runs) was > 95 µM (inactive); the IC50 under setting [2] is more than 95 µM; the IC50 under setting [3] was more than 95 µM.
In the case of `CC1CCN(C(=O)c2[nH]cnc2C(=O)NCc2ccc(CNC(=O)OC(C)(C)C)cc2)CC1`, the IC50 (AlphaScreen, mean of runs) is 12.9 µM; the IC50 under setting [1] came to 12.9 µM; the IC50 (FP, mean of runs) is > 95 µM (inactive); the IC50 under setting [2] is more than 95 µM; the IC50 under setting [3] is more than 95 µM.
`Cn1cccc1C1Nc2ccccc2NC2=C1C(=O)CC(C)(C)C2` (stereo not given): the IC50 is, setting by setting: (AlphaScreen, mean of runs) > 100 µM (inactive); under setting [1], more than 100 µM; (FP, mean of runs) > 95 µM (inactive); under setting [2], more than 95 µM; under setting [3], more than 95 µM.
In the case of `C#CCOc1nc(C)cc(C)c1S(=O)(=O)c1ccccc1C`, the IC50 (AlphaScreen, mean of runs) was > 100 µM (inactive); the IC50 under setting [1] is more than 100 µM; the IC50 (FP, mean of runs) was > 95 µM (inactive); the IC50 under setting [2] was more than 95 µM; the IC50 under setting [3] is more than 95 µM.
As to `Cc1ccc(Cn2nnnc2CN2CCC(n3nnc4ccccc43)CC2)cc1`, the IC50 runs as follows: (AlphaScreen, mean of runs) > 100 µM (inactive); under setting [1], more than 100 µM; (FP, mean of runs) > 95 µM (inactive); under setting [2], more than 95 µM; under setting [3], more than 95 µM.
For the compound `O=C(O)c1ccccc1CSc1ccccn1`, the IC50 is, setting by setting: (AlphaScreen, mean of runs) 16.5 µM; under setting [1], 16.5 µM; (FP, mean of runs) > 95 µM (inactive); under setting [2], more than 95 µM; under setting [3], more than 95 µM.
Consider `COCCNC(=O)c1cc(-c2ccccc2)nn1CC1CC(c2cccc([N+](=O)[O-])c2)=NO1` (stereo not given), for which the IC50 is > 100 µM (inactive) (AlphaScreen, mean of runs); more than 100 µM under setting [1]; > 95 µM (inactive) (FP, mean of runs); more than 95 µM under setting [2]; more than 95 µM under setting [3].
As to `COc1ccccc1C(=O)NC(=O)CSc1nncn1C`, the IC50 (AlphaScreen, mean of runs) was > 100 µM (inactive); the IC50 under setting [1] was more than 100 µM; the IC50 (FP, mean of runs) is > 95 µM (inactive); the IC50 under setting [2] was more than 95 µM; the 50% inhibitory concentration (IC50) under setting [3] was more than 95 µM.
For `O=C1C=CC(=O)C2C1C1(Cl)C(Cl)=C(Cl)C2(Cl)C1(Cl)Cl` (stereo not given), the IC50 is, setting by setting: (AlphaScreen, mean of runs) > 100 µM (inactive); under setting [1], more than 100 µM; (FP, mean of runs) > 95 µM (inactive); under setting [2], more than 95 µM; under setting [3], more than 95 µM.
